Data reported in US10933079B2, “Oligonucleotide analogues incorporating 5-aza-cytosine therein” (Astex Pharmaceuticals, Inc., priority 2005, dated 2021).

How the values were obtained:
[1] = tested on: CMV-EE210 cell line containing the epigenetically silenced GFP transgene (CMV promoter); assay: cell-based GFP assay for DNA methylation (reactivation of silenced GFP transgene)
Method: The demethylating activity of DpG and GpD di-, tri-, and tetranucleotides were tested in a cell-based GFP (green fluorescent protein) assay. This assay, which is schematically illustrated in FIG. 25, has a GFP gene regulated by the CMV promoter and is sensitive to the methylation of CpG sites within the promoter. A decrease in methylation resulting from exposure to a methylation inhibitor leads to GFP expression and is readily scored. Specifically, the CMV-EE210 cell line containing the epigenetically silenced GFP transgene was used to assay for reactivation of GFP expression by flow cytometry. CMV-EE210 was made by transfecting NIH 3T3 cells with the pTR-UF/UF1/UF2 plasmid (Zolotuhin et al., 1996), which is comprised of pBS(+) (Stratagene, Inc.) containing a cytomegalovirus (CMV) promoter driving a humanized GFP gene adapted for expression in mammalian cells. After transfection, high-level GFP expressing cells were initially selected by FACS analysis and sorting using a MoFlo cytometer (Cytomation, Inc.). Decitabine, potent inhibitor of mammalian DNMT1, was used as a positive control. […] Wells were scored g1 positive if (10%) of viable cells express GFP, g2 positive if 30% of viable cells express GFP and g3 if >75% of the viable cells express GFP. […]

[2] = cited from earlier work

For Nc1ncn([C@H]2C[C@H](O)[C@@H](CO)O2)c(=O)n1 [Decitabine, 5-aza-2′-deoxycytidine], the “GFP Expression Level” value ([1]; CMV-EE210 cells, three days, decitabine at 1 μM, test compound at 30-50 μM, fluorescent microscope scoring) is given as “g3 (g3 if >75% of the viable cells express GFP)”, the IC50 ([1]; GFP 50: dose at which the GFP expression level goes from g3 to g1/2, preliminary screening) is given as 500 nM and the total urinary excretion ([2]; humans) is given as “less than 1 % of the administered dose”. For the same compound, the “penetration into the cerebrospinal fluid” value ([2]; man, end of a 36-hour intravenous infusion) was 14-21 % of the plasma concentration.
